Data from patent publication US11147272B2, “Pyridone compounds and agricultural and horticultural fungicides comprising the same as active ingredients” (MITSUI CHEMICALS AGRO, INC., priority 2017, dated 2021).
Where two headings read alike, the source gives them in different places.

Columns and labels:
Magnaporthe grisea = test: whole plant or invertebrate; format: in vivo; conditions: for Test A control value class: class of control value
Alternaia brassicicola = test: Test Example C: Alternaria sooty spot on cabbage; format: in vivo
Source text: Seeds of a test plant (cabbage variety: Shikidori) were planted and cultivated until the cotyledons extended.
<Control Value> Control value=100{1−(n/3)}

Puccinia recondita = test: Test Example E: Brown rust on wheat; format: in vivo
Phytophthora infestans = test: whole plant or invertebrate; format: in vivo; conditions: for Test F control value class: class of control value
Botrytis cinerea = test: Test Example B: Gray mold on tomato; conditions: for Test B control value class: class of control value
Method: Seeds of a test plant (tomato variety: Oogata Fukuju) were planted and cultivated until three to five first leaves (true leaves) appeared. In the test, the inventive compounds were dissolved into dimethyl sulfoxide-methanol mixture solution (volume ratio: 9/1), and the resultant solutions were diluted with well water to a concentration of 250 ppm to obtain the drug solutions. The drug solutions were sprayed to the test plant (2.5 ml/pot). After the drug solutions dried, a conidial suspension (4-8×10^5 conidia/ml) of Botrytis cinerea was inoculated to the plant by spraying. After the inoculation, the plant was kept in a mist chamber at room temperature of 20 to 23° C. for about 48 hours to promote the onset of disease. The degrees of disease development were investigated 2 to 3 days after the inoculation, and the effectiveness of the drug solutions was evaluated.
In Test Examples described above, the degrees of disease development were evaluated in increments of 0.05 from 0 (as no incidence of disease) to 3 (as the degree of disease development in an untreated plant group). Further, control values were calculated using the following equation based on the degree of disease development.
n=Degree of disease development in each treated group
In the table, H: more than 50% control value, L: 50% or less control value, and nt: not tested.

Plasmopara viticola = test: Test Example G: Downy mildew on vine; conditions: for Test G control value: 7 to 10 days after inoculation; for pest or weed control at 250 ppm: Plasmopara viticola, topical; for Test G control value class: Downy mildew on vine (Neomuscat), 2.5 ml/pot, assessed 7 to 10 days after inoculation
[1] = test system: Colletotrichum orbiculare; test: Test Example H: Anthracnose on cucumber; conditions: for Test H control value: 6 to 10 days after inoculation; for pest or weed control at 250 ppm: Colletotrichum orbiculare, in Cucumis sativus, topical; for Test H control value class: Anthracnose on cucumber (Sagami Hanjiro), 2.5 ml/pot, assessed 6 to 10 days after inoculation
[2] = test system: Blumeria graminis f. sp. hordei; test: Test Example D: Powdery mildew on barley; conditions: for Test D control value class: class of control value
[3] = Blast on rice, control value class
[4] = Alternaria sooty spot on cabbage, control value class
[5] = Brown rust on wheat, control value class
[6] = Late blight on tomato, control value class
[7] = Gray mold on tomato, control value class
[8] = Downy mildew on vine, 250 ppm spray
[9] = Anthracnose on cucumber, 250 ppm spray
[10] = Powdery mildew on barley, control value class
[11] = Alternaria sooty spot on cabbage, class of control value
[12] = Brown rust on wheat, class of control value
[13] = 250 ppm drug solution sprayed on test plant

Structure (SMILES)	Test A control value (Magnaporthe grisea; [3])	Test C control value (Alternaia brassicicola; [4])	Test E control value (Puccinia recondita; [5])	Test F control value (Phytophthora infestans; [6])	Test B control value (Botrytis cinerea; [7])	Test G control value (Plasmopara viticola; [8])	Test H control value [1, 9]	Test D control value [2, 10]	other results
CCCOC(C)(c1cc(Cl)c(=O)n(CC)c1-c1ccc(C#N)cc1)C(C)C (stereo not drawn) [compound 252]	H (more than 50% control value)	L (50% or less control value)	L (50% or less control value)	L (50% or less control value)	L (50% or less control value)	L (50% or less control value)	L (50% or less control value)	L (50% or less control value)	
CCn1c(-c2c(F)cccc2F)c(C(C)(O)CC)cc(Cl)c1=O (stereo not drawn) [Compound No. 27, 3-chloro-6-(2,6-difluorophenyl)-1-ethyl-5-(2-hydroxybutan-2-yl)pyridin-2(1H)-one]									pest or weed control at 250 µg/mL (Magnaporthe grisea; Pyricularia oryzae, in Oryza sativa, read-out: Test A control value class): > 50%; pest or weed control at 250 µg/mL (Alternaia brassicicola; Brassica oleracea, topical, Alternaria sooty spot on cabbage, class of control value, read-out: Test C control value class): > 50%; pest or weed control at 250 µg/mL (Puccinia recondita; Puccinia recondita, topical, Brown rust on wheat, class of control value, read-out: Test E control value class): > 50%; pest or weed control at 250 µg/mL (Phytophthora infestans; Phytophthora infestans, in Solanum lycopersicum, topical, read-out: Test F control value class): < 50%; pest or weed control at 250 µg/mL (Botrytis cinerea; Botrytis cinerea, in Solanum lycopersicum, topical, read-out: Test B control value class): > 50%; pest or weed control at 250 ppm (Plasmopara viticola; read-out: Test G control value class): > 50%; pest or weed control at 250 ppm ([1]; read-out: Test H control value class): > 50%; pest or weed control at 250 µg/mL ([2]; Blumeria graminis, in Hordeum vulgare, topical, read-out: Test D control value class): > 50%
CCn1c(-c2c(F)cc(F)cc2F)c(COc2ccc(OC)cc2)cc(Cl)c1=O [compound 310]	L (50% or less control value)	H (more than 50% control value)	H (more than 50% control value)	L (50% or less control value)	H (more than 50% control value)	H (more than 50% control value)	L (50% or less control value)	L (50% or less control value)	
CCn1c(-c2c(F)cc(OC)cc2F)c(CN(OC)C(=O)OC)cc(Cl)c1=O [compound 131]									Test A control value class (Magnaporthe grisea; Blast on rice): H (more than 50% control value); Test C control value class (Alternaia brassicicola; [11]): H (more than 50% control value); Test E control value class (Puccinia recondita; [12]): H (more than 50% control value); Test F control value class (Phytophthora infestans; Late blight on tomato): L (50% or less control value); Test B control value class (Botrytis cinerea; Gray mold on tomato): H (more than 50% control value); Test G control value class (Plasmopara viticola; 250 ppm spray): H (more than 50% control value); Test H control value class ([1]; 250 ppm spray): H (more than 50% control value); Test D control value class ([2]; Powdery mildew on barley): H (more than 50% control value)
CCCCCCc1cc(Br)c(=O)n(CC)c1-c1ccc(F)cc1Cl [compound 293]	L (50% or less control value)	H (more than 50% control value)	L (50% or less control value)	L (50% or less control value)	L (50% or less control value)	L (50% or less control value)	L (50% or less control value)	H (more than 50% control value)	
CCc1cc(Cl)c(=O)n(CC)c1-c1ccc(OC)cc1Cl [compound 327]	H (more than 50% control value)	H (more than 50% control value)	H (more than 50% control value)	H (more than 50% control value)	H (more than 50% control value)	H (more than 50% control value)	H (more than 50% control value)	L (50% or less control value)	
CCN(Cc1cc(Cl)c(=O)n(CC)c1-c1c(F)cc(OC)cc1F)OC [compound 152]									Test A control value class (Magnaporthe grisea; Blast on rice): H (more than 50% control value); Test C control value class (Alternaia brassicicola; [11]): H (more than 50% control value); Test E control value class (Puccinia recondita; [12]): H (more than 50% control value); Test F control value class (Phytophthora infestans; Late blight on tomato): L (50% or less control value); Test B control value class (Botrytis cinerea; Gray mold on tomato): H (more than 50% control value); Test G control value class (Plasmopara viticola; 250 ppm spray): H (more than 50% control value); Test H control value class ([1]; 250 ppm spray): H (more than 50% control value); Test D control value class ([2]; Powdery mildew on barley): H (more than 50% control value)
CCn1c(-c2c(F)cc(OC)cc2F)c(C(C)(O)CC)cc(Cl)c1=O (stereo not drawn) [compound 59]									Test A control value class (Magnaporthe grisea; Blast on rice): H (more than 50% control value); Test C control value class (Alternaia brassicicola; [11]): H (more than 50% control value); Test E control value class (Puccinia recondita; [12]): H (more than 50% control value); Test F control value class (Phytophthora infestans; Late blight on tomato): L (50% or less control value); Test B control value class (Botrytis cinerea; Gray mold on tomato): H (more than 50% control value); Test G control value class (Plasmopara viticola; 250 ppm spray): H (more than 50% control value); Test H control value class ([1]; 250 ppm spray): H (more than 50% control value); Test D control value class ([2]; Powdery mildew on barley): H (more than 50% control value)
CCc1cc(Cl)c(=O)n(C)c1-c1ccc(O)cc1Cl [compound 330]	L (50% or less control value)	L (50% or less control value)	L (50% or less control value)	L (50% or less control value)	H (more than 50% control value)	H (more than 50% control value)	L (50% or less control value)	L (50% or less control value)	
COc1cc(F)c(-c2c(C(OC)C(C)C)cc(Cl)c(=O)n2C)c(F)c1 (stereo not drawn) [compound 498]									Test A control value (Magnaporthe grisea; [13]): H (more than 50% control value); Test C control value (Alternaia brassicicola; [13]): H (more than 50% control value); Test E control value (Puccinia recondita; [13]): H (more than 50% control value); Test F control value (Phytophthora infestans; [13]): L (50% or less control value); Test B control value (Botrytis cinerea; [13]): H (more than 50% control value); Test G control value (Plasmopara viticola; 250 ppm drug solution sprayed (2.5 ml/pot), grape Neomuscat): L (50% or less control value); Test H control value ([1]; 250 ppm drug solution sprayed (2.5 ml/pot), cucumber Sagami Hanjiro): H (more than 50% control value); Test D control value [2, 13]: L (50% or less control value)
CCCOC(C)(c1cc(Cl)c(=O)n(CC)c1-c1ccc(F)cc1)C(C)C (stereo not drawn) [compound 216]	L (50% or less control value)	L (50% or less control value)	L (50% or less control value)	L (50% or less control value)	L (50% or less control value)	L (50% or less control value)	L (50% or less control value)	H (more than 50% control value)	
CCn1c(-c2c(F)cc(F)cc2F)c(CC(C)(C)C)cc(Cl)c1=O [compound 169]									Test A control value class (Magnaporthe grisea; Blast on rice): H (more than 50% control value); Test C control value class (Alternaia brassicicola; [11]): H (more than 50% control value); Test E control value class (Puccinia recondita; [12]): H (more than 50% control value); Test F control value class (Phytophthora infestans; Late blight on tomato): H (more than 50% control value); Test B control value class (Botrytis cinerea; Gray mold on tomato): H (more than 50% control value); Test G control value class (Plasmopara viticola; 250 ppm spray): H (more than 50% control value); Test H control value class ([1]; 250 ppm spray): H (more than 50% control value); Test D control value class ([2]; Powdery mildew on barley): H (more than 50% control value)
CCn1c(-c2c(F)cc(F)cc2F)c(C(OC)C(F)(F)F)cc(Cl)c1=O (stereo not drawn) [Compound No. 516, 3-Chloro-1-ethyl-5-(2,2,2-trifluoro-1-methoxyethyl)-6-(2,4,6-trifluorophenyl)pyridin-2(1H)-one]									pest or weed control at 250 ppm (Magnaporthe grisea; Pyricularia oryzae, in Oryza sativa, read-out: Test A control value): > 50%; pest or weed control at 250 ppm (Alternaia brassicicola; topical, 250 ppm drug solution sprayed on test plant): > 50%; pest or weed control at 250 ppm (Puccinia recondita; Puccinia recondita, topical, 250 ppm drug solution sprayed on test plant): > 50%; pest or weed control at 250 ppm (Phytophthora infestans; Phytophthora infestans, in Solanum lycopersicum, topical, read-out: Test F control value): < 50%; pest or weed control at 250 ppm (Botrytis cinerea; Botrytis cinerea, in Solanum lycopersicum, topical, read-out: Test B control value): > 50%; pest or weed control at 250 ppm (Plasmopara viticola; 168 h, read-out: Test G control value): > 50%; pest or weed control at 250 ppm ([1]; 144 h, read-out: Test H control value): > 50%; pest or weed control at 250 ppm ([2]; Blumeria graminis, in Hordeum vulgare, topical, read-out: Test D control value): > 50%
CCn1c(-c2ccc(C#N)cc2)c(C(C)(F)C(C)C)cc(Cl)c1=O (stereo not drawn) [compound 253]	L (50% or less control value)	H (more than 50% control value)	L (50% or less control value)	L (50% or less control value)	H (more than 50% control value)	L (50% or less control value)	L (50% or less control value)	L (50% or less control value)	
CCn1c(-c2c(F)cccc2F)c(C(C)C(C)C)cc(Cl)c1=O (stereo not drawn) [compound 198]	H (more than 50% control value)	H (more than 50% control value)	H (more than 50% control value)	L (50% or less control value)	H (more than 50% control value)	L (50% or less control value)	H (more than 50% control value)	H (more than 50% control value)	
